From paper PMC9837035 (Nature Communications, 2023)
Where “and” joins values, the source holds several entries; their conditions need not be identical. Equal entries are not always repeated. Where two headings read alike, the source gives them in different places.

Tests used:
[1] = tested on: ZBTB7A occupancy at the β-globin locus; assay: ChIP-qPCR with antibody against ZBTB7A in HUDEP-2 cells; type: cell-based, human; parameters: ChIP-qPCR, antibody against ZBTB7A: scale not given here; settings: for occupancy of ZBTB7A: HUDEP-2, 4 days
Method: A total of 0.5–1 × 10^6 cells were cross-linked with 1% formaldehyde for 10 min at room temperature and the reaction was quenched with 250 mM glycine. Cross-linked cells were then lysed with buffer 1 (15 mM Tris-HCl (pH 7.5), 60 mM KCl, 15 mM NaCl, 5 mM MgCl2, 0.1 mM EGTA, 300 mM sucrose, […], 1 mM phenylmethanesulfonyl fluoride (PMSF), 0.5% NP40) and incubated on ice for 10 min. After centrifugation, the pellet was re-suspended in buffer 2 (15 mM Tris-HCl (pH 7.5), 60 mM KCl, 15 mM NaCl, 5 mM MgCl2, 0.1 mM EGTA, 1.2 M sucrose, […], 1 mM PMSF). After centrifugation, the pellet was then re-suspended in MNase buffer (50 mM Tris-HCl (pH 7.5), 1 mM CaCl2, 4 mM MgCl2, 320 mM sucrose, 1 mM PMSF) and digested with 100 U of micrococcal nuclease (Takara) at 37 °C for 15 min. After the reaction was quenched with 20 mM EDTA, the supernatants were incubated with antibodies (anti-H3K9me2 (1:100), Abcam, ab1220; anti-H3K9ac (1:100), Active Motif, 39917; Goat anti-IgG (H + L) (1:100), Jackson Immunoresearch; anti-BCL11A (1:100), Novus Biologicals, NB600-261; anti-ZBTB7A (1:100), Thermo Fisher Scientific, eBioscience (13E9); anti-CHD3 (1:100), Novus Biologicals, NB-100-60412; anti-CHD4 (1:100), abcam, ab240640) and Protein A/G PLUS-Agarose (Santa Cruz Biotechnology) overnight at 4 °C. Beads were washed sequentially once with the following buffers: wash buffer A (50 mM Tris-HCl (pH 7.5), 75 mM NaCl, 10 mM EDTA, 0.01% NP40), wash buffer B (50 mM Tris-HCl (pH 7.5), 100 mM NaCl, 10 mM EDTA, 0.01% NP40), wash buffer C (50 mM Tris-HCl (pH 7.5), 175 mM NaCl, 10 mM EDTA, 0.01% NP40). After treatment with proteinase K in buffer 4 (20 mM Tris-HCl (pH 8.0), 10 mM EDTA, 400 mM NaCl, 0.5% SDS) at 56 °C overnight, DNA was purified using the FastGene Gel/PCR Extraction Kit (Nippon Genetics). The samples were analyzed by qPCR. Primers are listed in Supplementary Table 10. ChIP-seq experiments were performed by GENEWIZ. Tracks were visualized using the integrative genome viewer. ChIP-seq analysis were analyzed Cutadapt (V1.9.1) for QC, FastQC (V0.10.1) for QC assessment, Bowtie (V2.1.0) for mapping, strand cross-correlation (SCC) for ChIP quality assessment, MACS2 for peak calling, and R package ChIPpeakAnno for Peak annotated.

[2] = tested on: BGLT3 RNA in HUDEP-2 cells; assay: RT-qPCR of BGLT3 in HUDEP-2 cells; type: cell-based, human
How it was run: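 Total RNA reverse-transcribed to cDNA, then target transcripts quantified by SYBR Green real-time qPCR. Expression normalized to GAPDH as reference gene.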

SETD2 = target: T1, SETD2 (Homo sapiens, UniProt Q9BYW2); assay: Radioisotope-based methyltransferase assay (selectivity); type: biochemical
T1 construct: purchased Reaction Biology
T1 sequence (Q9BYW2 whole entry): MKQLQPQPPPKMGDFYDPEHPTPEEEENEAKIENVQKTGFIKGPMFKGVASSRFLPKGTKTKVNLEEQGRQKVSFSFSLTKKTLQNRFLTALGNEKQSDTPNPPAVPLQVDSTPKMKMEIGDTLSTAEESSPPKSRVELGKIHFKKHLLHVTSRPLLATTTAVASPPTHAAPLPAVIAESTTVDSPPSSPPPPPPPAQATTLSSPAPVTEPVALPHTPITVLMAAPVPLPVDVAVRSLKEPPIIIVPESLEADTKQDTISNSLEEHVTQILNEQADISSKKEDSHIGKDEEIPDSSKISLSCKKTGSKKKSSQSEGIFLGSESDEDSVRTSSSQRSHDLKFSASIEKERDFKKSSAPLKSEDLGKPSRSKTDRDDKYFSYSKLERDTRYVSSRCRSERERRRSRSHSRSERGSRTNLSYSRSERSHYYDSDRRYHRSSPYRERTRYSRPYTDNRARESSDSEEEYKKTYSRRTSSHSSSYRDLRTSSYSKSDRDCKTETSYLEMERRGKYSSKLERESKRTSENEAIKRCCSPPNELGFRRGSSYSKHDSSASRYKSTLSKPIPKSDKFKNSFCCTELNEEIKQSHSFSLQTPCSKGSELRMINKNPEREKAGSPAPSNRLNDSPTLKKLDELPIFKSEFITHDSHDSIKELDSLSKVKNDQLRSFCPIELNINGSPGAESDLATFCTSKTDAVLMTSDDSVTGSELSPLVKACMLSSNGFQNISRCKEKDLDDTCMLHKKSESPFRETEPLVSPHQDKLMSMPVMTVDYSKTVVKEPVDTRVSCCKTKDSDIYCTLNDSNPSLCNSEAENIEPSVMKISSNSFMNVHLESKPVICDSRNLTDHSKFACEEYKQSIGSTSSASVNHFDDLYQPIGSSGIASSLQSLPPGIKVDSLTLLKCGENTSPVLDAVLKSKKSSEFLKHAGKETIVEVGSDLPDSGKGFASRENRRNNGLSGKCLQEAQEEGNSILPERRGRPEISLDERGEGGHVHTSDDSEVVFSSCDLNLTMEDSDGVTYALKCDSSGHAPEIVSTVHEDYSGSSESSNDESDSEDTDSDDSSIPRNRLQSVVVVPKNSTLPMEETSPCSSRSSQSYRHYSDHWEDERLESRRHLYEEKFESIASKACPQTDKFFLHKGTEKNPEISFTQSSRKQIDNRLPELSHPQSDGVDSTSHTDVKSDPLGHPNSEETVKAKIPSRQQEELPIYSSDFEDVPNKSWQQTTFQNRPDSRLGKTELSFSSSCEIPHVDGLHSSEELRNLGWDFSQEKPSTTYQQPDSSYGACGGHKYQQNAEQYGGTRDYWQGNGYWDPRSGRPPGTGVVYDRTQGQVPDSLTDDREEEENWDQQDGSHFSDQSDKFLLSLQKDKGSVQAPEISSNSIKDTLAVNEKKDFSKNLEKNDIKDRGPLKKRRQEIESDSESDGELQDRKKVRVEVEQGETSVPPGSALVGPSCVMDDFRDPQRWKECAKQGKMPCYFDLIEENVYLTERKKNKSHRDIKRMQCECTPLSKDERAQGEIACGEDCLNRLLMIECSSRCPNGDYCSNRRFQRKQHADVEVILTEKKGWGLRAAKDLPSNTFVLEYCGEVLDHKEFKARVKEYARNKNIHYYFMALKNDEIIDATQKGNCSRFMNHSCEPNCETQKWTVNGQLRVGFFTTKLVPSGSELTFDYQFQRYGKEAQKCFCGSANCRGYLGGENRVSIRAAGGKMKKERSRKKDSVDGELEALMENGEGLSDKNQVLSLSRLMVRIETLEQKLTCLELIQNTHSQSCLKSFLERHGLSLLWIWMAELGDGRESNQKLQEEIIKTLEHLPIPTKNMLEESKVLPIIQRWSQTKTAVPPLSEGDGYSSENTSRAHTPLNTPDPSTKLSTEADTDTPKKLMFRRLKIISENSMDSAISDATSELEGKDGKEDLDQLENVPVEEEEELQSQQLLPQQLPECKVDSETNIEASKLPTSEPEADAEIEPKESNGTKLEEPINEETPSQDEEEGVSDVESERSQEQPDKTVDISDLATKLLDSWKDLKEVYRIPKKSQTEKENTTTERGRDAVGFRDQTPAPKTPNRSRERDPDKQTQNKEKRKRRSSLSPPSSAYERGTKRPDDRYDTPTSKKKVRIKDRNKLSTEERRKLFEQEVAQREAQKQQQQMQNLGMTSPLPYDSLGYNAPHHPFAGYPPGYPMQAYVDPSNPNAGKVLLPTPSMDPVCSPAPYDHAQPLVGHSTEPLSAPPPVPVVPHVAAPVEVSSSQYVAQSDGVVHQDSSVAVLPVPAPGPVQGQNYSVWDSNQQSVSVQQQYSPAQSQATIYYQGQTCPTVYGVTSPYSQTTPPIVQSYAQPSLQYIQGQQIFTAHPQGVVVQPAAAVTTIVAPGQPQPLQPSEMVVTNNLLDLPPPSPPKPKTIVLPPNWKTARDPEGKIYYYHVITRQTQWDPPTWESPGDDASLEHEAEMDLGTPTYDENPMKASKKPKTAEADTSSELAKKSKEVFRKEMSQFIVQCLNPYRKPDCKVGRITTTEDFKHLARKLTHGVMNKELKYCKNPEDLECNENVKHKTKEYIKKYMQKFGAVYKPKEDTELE

DNMT3a = target: T2, DNMT3a (Homo sapiens, UniProt Q9Y6K1); assay: as above; type: biochemical
T2 construct: purchased Reaction Biology
T2 sequence (Q9Y6K1 whole entry, looked up): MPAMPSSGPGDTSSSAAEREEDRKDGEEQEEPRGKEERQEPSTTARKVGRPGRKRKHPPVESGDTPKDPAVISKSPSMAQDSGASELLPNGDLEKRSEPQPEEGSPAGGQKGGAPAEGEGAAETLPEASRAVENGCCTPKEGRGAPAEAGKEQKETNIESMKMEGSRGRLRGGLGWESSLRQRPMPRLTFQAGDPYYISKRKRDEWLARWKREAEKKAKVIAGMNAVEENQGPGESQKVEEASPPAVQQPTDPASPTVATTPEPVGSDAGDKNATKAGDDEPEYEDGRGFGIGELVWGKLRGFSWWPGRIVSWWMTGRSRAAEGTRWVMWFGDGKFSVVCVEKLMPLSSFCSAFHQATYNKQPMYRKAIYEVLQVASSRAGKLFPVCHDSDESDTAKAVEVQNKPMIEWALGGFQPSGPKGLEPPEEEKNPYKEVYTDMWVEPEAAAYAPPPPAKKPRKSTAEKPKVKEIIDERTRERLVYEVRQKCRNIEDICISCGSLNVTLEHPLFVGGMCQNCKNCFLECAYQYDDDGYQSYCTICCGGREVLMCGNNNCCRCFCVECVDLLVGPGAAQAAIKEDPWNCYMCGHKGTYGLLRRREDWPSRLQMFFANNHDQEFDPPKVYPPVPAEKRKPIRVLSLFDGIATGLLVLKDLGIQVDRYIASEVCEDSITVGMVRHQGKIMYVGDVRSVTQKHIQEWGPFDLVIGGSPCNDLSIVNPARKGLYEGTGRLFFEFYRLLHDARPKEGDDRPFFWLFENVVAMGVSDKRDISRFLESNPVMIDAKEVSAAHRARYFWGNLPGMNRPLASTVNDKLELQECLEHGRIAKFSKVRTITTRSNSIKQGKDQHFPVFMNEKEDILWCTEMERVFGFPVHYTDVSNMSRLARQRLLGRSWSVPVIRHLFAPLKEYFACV

Structure (SMILES): NC(=O)NO [Hydroxyurea, hydroxyurea]
- ChIP-qPCR, antibody against ZBTB7A ([1]; BGLT3 locus, HUDEP-2 cells treated with hydroxyurea, replicates 1a-3b): 0.2555 and 0.2878 and 0.489 and 0.1677 and 0.3852 and 0.1554
- ChIP-qPCR, antibody against ZBTB7A ([1]; HS1, HUDEP-2 cells treated with hydroxyurea, replicates 1a-3b): 0.1321 and 0.1347 and 0.8135 and 0.9678 and 0.3385 and 0.3161
- ChIP-qPCR, antibody against ZBTB7A ([1]; HS2, HUDEP-2 cells treated with hydroxyurea, replicates 1a-3b): 0.5755 and 1.852 and 0.7582 and 2.507 and 0.9285 and 0.344
- ChIP-qPCR, antibody against ZBTB7A ([1]; HS3, HUDEP-2 cells treated with hydroxyurea, replicates 1a-3b): 3.3 and 2.712 and 3.199 and 3.147 and 3.201 and 2.452
- ChIP-qPCR, antibody against ZBTB7A ([1]; HS4, HUDEP-2 cells treated with hydroxyurea, replicates 1a-3b): 0.5937 and 0.6906 and 0.5556 and 0.0004431 and 0.6456 and 0.709
- occupancy of ZBTB7A [1]: unchanged
- ChIP-qPCR, antibody against ZBTB7A ([1]; β-globin promoter, HUDEP-2 cells treated with hydroxyurea, replicates 1a-3b): 0.3506 and 0.4318 and 0.349 and 0.2415 and 0.313 and 0.6542
- ChIP-qPCR, antibody against ZBTB7A ([1]; γ-globin promoter, HUDEP-2 cells treated with hydroxyurea, replicates 1a-3b): 0.3068 and 0.4102 and 0.3595 and 0.2786 and 0.238 and 0.2672
- ChIP-qPCR, antibody against ZBTB7A ([1]; δ-globin promoter, HUDEP-2 cells treated with hydroxyurea, replicates 1a-3b): 0.2368 and 0.1088 and 0.2161 and 0.2308 and 0.337 and 0.2535
- BGLT3 expression in HUDEP-2 cells treated with hydroxyurea ([2]; 50 μM, relative to DMSO = 1, replicate values): 1.625 and 1.206 and 1.616
- BGLT3 expression in HUDEP-2 cells treated with hydroxyurea ([2]; 100 μM, relative to DMSO = 1, replicate values): 1.87 and 1.919 and 2.091
- BGLT3 expression in HUDEP-2 cells treated with hydroxyurea ([2]; 200 μM, relative to DMSO = 1, replicate values): 2.757 and 2.815 and 4.093
- BGLT3 expression ([2]; HUDEP-2): promoted BGLT3 expression
- BGLT3 expression ([2]; Left panel, Parental HUDEP-2 cells treated with hydroxyurea, Parental DMSO = 1, 3 replicates): 2.685 and 2.462 and 3.265
- BGLT3 expression ([2]; Right panel, Parental HUDEP-2 cells treated with hydroxyurea, DMSO of the same cells = 1, 3 replicates): 2.685 and 2.462 and 3.265

Structure (SMILES): Cc1c(C(=O)NC(CCC2CC2)C(=O)Nc2ccc(C#N)cc2)[nH]c2c1C(=O)CC(C)(C)C2 (centres unmarked) [RK-701]
- ChIP-qPCR, antibody against ZBTB7A ([1]; BGLT3 locus, HUDEP-2 cells treated with RK-701, replicates): 0.4785 and 0.7839 and 0.6066 and 0.47 and 0.614 and 0.4023
- ChIP-qPCR, antibody against ZBTB7A ([1]; HS1, HUDEP-2 cells treated with RK-701, replicates): 0.3678 and 0.05637 and 0.7128 and 0.4479 and 0.1475 and 0.1331
- ChIP-qPCR, antibody against ZBTB7A ([1]; HS2, HUDEP-2 cells treated with RK-701, replicates): 1.5097 and 1.657 and 5.746 and 3.531 and 2.263 and 8.084 and 5.171
- ChIP-qPCR, antibody against ZBTB7A ([1]; HS3, HUDEP-2 cells treated with RK-701, replicates): 0.5878 and 1.255 and 2.352 and 2.616 and 1.402 and 1.245 and 2.743
- ChIP-qPCR, antibody against ZBTB7A ([1]; HS4, HUDEP-2 cells treated with RK-701, replicates): 0.4061 and 0.5382 and 0.8901 and 0.4009 and 0.2486
- occupancy of ZBTB7A [1]: significantly reduced
- ChIP-qPCR, antibody against ZBTB7A ([1]; β-globin promoter, HUDEP-2 cells treated with RK-701, replicates): 0.04529 and 0.1645 and 0.1359 and 0.07664 and 0.1559 and 0.07017 and 0.04448 and 0.1674 and 0.1136
- ChIP-qPCR, antibody against ZBTB7A ([1]; γ-globin promoter, HUDEP-2 cells treated with RK-701, replicates): 0.04733 and 0.01872 and 0.01192 and 0.1001 and 0.03782 and 0.06607 and 0.08612
- ChIP-qPCR, antibody against ZBTB7A ([1]; δ-globin promoter, HUDEP-2 cells treated with RK-701, replicates): 0.02578 and 0.1044 and 0.02059 and 0.06153 and 0.0851 and 0.07628
- IC50 (SETD2; SETD2, 1 μM SAM): > 100 µM
- IC50 (SETD2; SETD2, RK-701 in duplicate): > 100 µM
- IC50 (DNMT3a; DNMT3a, 1 μM SAM, read-out: IC50): > 100000 nM
- IC50 (DNMT3a; DNMT3a, RK-701 in duplicate, read-out: IC50): > 100000 nM
- BGLT3 expression ([2]; HUDEP-2): induced BGLT3 expression
- BGLT3 expression ([2]; parental HUDEP-2 cells treated with RK-701, parental DMSO = 1, replicates 1a-3b): 3.454 and 1.802 and 1.321 and 3.995 and 3.605 and 4.281
- BGLT3 expression in HUDEP-2 cells treated with RK-701 and decitabine ([2]; single agents or combination, relative to DMSO = 1, replicate values): 2.098 and 1.983 and 1.578

Structure (SMILES): Nc1ncnc2c1ncn2[C@@H]1O[C@H](CSCC[C@H](N)C(=O)O)[C@@H](O)[C@H]1O [SAH, S-(5'-Adenosyl)-L-homocysteine, reference compound]
- IC50 (SETD2; SETD2, 1 μM SAM): 5.3 µM
- IC50 (SETD2; SETD2, RK-701 in duplicate): 5.31 µM
- IC50 (DNMT3a; IC50, DNMT3a, 1 μM SAM): 300 nM
- IC50 (DNMT3a; IC50, DNMT3a, RK-701 in duplicate): 300 nM
